Results from patent US11945814B2, “Salt form” (CRT Pioneer Fund LP, priority 2018, dated 2024).

Columns and labels:
[1] = Dynamic vapour sorption (DVS) assessment; assay type: physicochemical
Procedure: The ability of samples studied to absorb moisture (or not) over a set of well-determined humidity ranges was assessed.
Sorption isotherms were obtained using a Hiden Isochema moisture sorption analyser (model IGAsorp), controlled by IGAsorp Systems Software V6.50.48. The sample was maintained at a constant temperature (25° C.) by the instrument controls. The humidity was controlled by mixing streams of dry and wet nitrogen, with a total flow of 250 ml·min^−1. The instrument was verified for relative humidity content by measuring three calibrated Rotronic salt solutions (10-50-88%). The weight change of the sample was monitored as a function of humidity by a microbalance (accuracy+/−0.005 mg). A defined amount of sample (typically 10-15 mg powder) was placed in a tared mesh stainless steel basket under ambient conditions. A full experimental cycle typically consisted of three scans (desorption, sorption, and desorption) at a constant temperature (25° C.) and 10% RH intervals over a 0-90% range (60 minutes for each humidity level).
Solids are then held post cycle at 0% RH for 2-3 hours and tested by XRPD and the remainder held at 90% RH for 2-3 hours and re-tested by XRPD.

[2] = Solubility of the diphosphate salt in a range of dissolution media; assay type: physicochemical
Procedure: The pH of the aqueous mixtures were also measured.

[3] = Stability assessment after storage at 40° C. and 75% RH for 3 weeks; assay type: physicochemical
Procedure: FIG. 3 compares the XRPD of the diphosphate salt (Form A) before (bottom) and after (top) storage at 40° C. and 75% RH.

[4] = Solubility of the diphosphate salt in a range of dissolution media; assay type: physicochemical; settings: thermodynamic from solid, 37° C., minimum of 21 hours
MPS1 kinase = target: T1, MPS1 kinase (Homo sapiens, UniProt P33981); settings: cited from earlier work
T1 sequence (P33981 1-857): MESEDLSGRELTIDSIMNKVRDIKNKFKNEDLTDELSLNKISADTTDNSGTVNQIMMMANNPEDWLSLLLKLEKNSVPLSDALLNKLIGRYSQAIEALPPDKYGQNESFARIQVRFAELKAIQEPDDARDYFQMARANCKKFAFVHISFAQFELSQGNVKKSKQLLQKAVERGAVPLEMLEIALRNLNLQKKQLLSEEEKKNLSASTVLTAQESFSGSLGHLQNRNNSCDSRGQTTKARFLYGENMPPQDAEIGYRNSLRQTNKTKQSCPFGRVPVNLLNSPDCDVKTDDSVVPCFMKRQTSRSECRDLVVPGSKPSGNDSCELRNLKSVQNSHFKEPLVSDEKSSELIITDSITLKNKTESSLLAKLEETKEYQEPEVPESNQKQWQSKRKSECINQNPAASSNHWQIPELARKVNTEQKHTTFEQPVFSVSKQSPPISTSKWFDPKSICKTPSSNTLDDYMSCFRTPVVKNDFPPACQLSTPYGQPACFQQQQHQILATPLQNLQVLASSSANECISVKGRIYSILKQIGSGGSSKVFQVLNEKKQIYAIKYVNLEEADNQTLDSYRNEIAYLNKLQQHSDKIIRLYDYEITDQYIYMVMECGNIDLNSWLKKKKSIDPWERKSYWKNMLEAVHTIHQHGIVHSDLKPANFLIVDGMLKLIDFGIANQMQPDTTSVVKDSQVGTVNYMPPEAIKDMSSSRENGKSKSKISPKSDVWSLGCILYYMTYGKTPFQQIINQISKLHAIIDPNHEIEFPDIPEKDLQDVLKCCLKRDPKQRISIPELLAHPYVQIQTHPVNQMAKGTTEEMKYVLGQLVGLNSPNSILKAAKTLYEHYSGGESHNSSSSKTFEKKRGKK

In the case of `CCOc1cc(-c2nncn2C)ccc1Nc1ncc2cc(C)nc(NCC(C)(C)C)c2n1` [N2-(2-ethoxy-4-(4-methyl-4H-1,2,4-triazol-3-yl)phenyl)-6-methyl-N8-neopentylpyrido[3,4-d]pyrimidine-2,8-diamine], the “DVS profile (reversibility, hysteresis)” value ([1]; 0-90% RH, 25° C., FIG. 4) is reported as “reversible water uptake over the humidity range and no hysteresis”, the Water uptake/loss ([1]; DVS, 0 to 90% RH, 25° C.) is reported as 4.03% and the “Water uptake/loss as equivalents of water” value ([1]; DVS, 0 to 90% RH, 25° C.) is reported as “about 1.5 equivalents of water”. For the same molecule, the “Flow of the solid post DVS” value ([1]; post DVS and exposure to 90% RH) was “free flowing”, the “Form change post DVS (XRPD)” value ([1]; post DVS at 0% RH and at 90% RH, FIG. 5) was “no evidence of form change” and the “pH of the aqueous mixture” value ([2]; Acetate buffer, pH 4.5) was 4.25. For the same molecule, the “pH of the aqueous mixture” value ([2]; FaSSIF, pH 6.5) was 2.07, the “pH of the aqueous mixture” value ([2]; FeSSIF, pH 5) was 2.36 and the “pH of the aqueous mixture” value ([2]; NaCl,0.9%/DMSO/Tween 20) was 2.13. For the same molecule, the “pH of the aqueous mixture” value ([2]; Phosphate buffer, pH 6.7) was 2.38, the “pH of the aqueous mixture” value ([2]; SFaGF, pH 1.6) was 1.72 and the “pH of the aqueous mixture” value ([2]; Sodium chloride 0.9% w/v) was 1.88. For the same molecule, the “pH of the aqueous mixture” value ([2]; Water, deionised) was 1.91, the “Chemical degradation after storage” value [3] was “no evidence of chemical degradation” and the Hydration after storage [3] was “no evidence”. The “Form modification after storage (XRPD)” value ([3]; FIG. 3) was “No evidence of form modification”, the “Change in appearance after storage” value ([3]; loose screw top vials) was “No change in appearance” and the solubility ([4]; aqueous buffer, Acetate buffer, pH 4.5) was 0.02 mg/mL. The solubility ([4]; aqueous buffer, Phosphate buffer, pH 6.7) was 30 mg/mL, the solubility ([4]; aqueous with cosolvent or surfactant or cyclodextrin, NaCl,0.9%/DMSO/Tween 20) was 30.2 mg/mL and the solubility ([4]; fassgf or other biorelevant, SFaGF, pH 1.6) was 30.5 mg/mL. It also gave a solubility ([4]; organic solvent or mixture, PEG300) of 4.17 mg/mL, a solubility ([4]; saline or isotonic, Sodium chloride 0.9% w/v) of 30.5 mg/mL and a solubility ([4]; FaSSIF, pH 6.5) of 29.7 mg/mL. It also gave a solubility ([4]; FeSSIF, pH 5) of 10.9 mg/mL and a solubility ([4]; Water, deionised) of 30.2 mg/mL.
In the case of `CCOc1cc(-c2nncn2C)ccc1Nc1ncc2cc(C)nc(NCC(C)(C)C)c2n1` [compound I, N2-(2-ethoxy-4-(4-methyl-4H-1,2,4-triazol-3-yl)phenyl)-6-methyl-N8-neopentylpyrido[3,4-d]pyrimidine-2,8-diamine], the “MPS1 kinase inhibitory activity” value (MPS1 kinase) is given as “potent”.
